Source: PubChem BioAssay (NCI)
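Results reflect a 48-hour exposure of cells in 96-well plates to compound at five concentrations. GI50 = concentration required for 50% inhibition of growth. TGI denotes the concentration required for complete inhibition of growth.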

Tests used:
Test in all cases: NCI-60 cell line screen, 48 h
[1] = tested on: 786-0 renal
[2] = tested on: A498 renal
[3] = tested on: A549 NSCLC
[4] = tested on: ACHN renal
[5] = tested on: BT-549 breast
[6] = tested on: CAKI-1 renal
[7] = tested on: CCRF-CEM leukemia
[8] = tested on: COLO 205 colon
[9] = tested on: DU-145 prostate
[10] = tested on: EKVX NSCLC
[11] = tested on: HCC-2998 colon
[12] = tested on: HCT-116 colon
[13] = tested on: HCT-15 colon
[14] = tested on: HL-60(TB) leukemia
[15] = tested on: HOP-62 NSCLC
[16] = tested on: HOP-92 NSCLC
[17] = tested on: HS 578T breast
[18] = tested on: HT29 colon
[19] = tested on: IGROV1 ovarian
[20] = tested on: K-562 leukemia
[21] = tested on: KM12 colon
[22] = tested on: LOX IMVI melanoma
[23] = tested on: M14 melanoma
[24] = tested on: MALME-3M melanoma
[25] = tested on: MCF7 breast
[26] = tested on: MDA-MB-231 breast
[27] = tested on: MDA-MB-435
[28] = tested on: MOLT-4 leukemia
[29] = tested on: NCI-H226 lung
[30] = tested on: NCI-H23 lung
[31] = tested on: NCI-H460 lung
[32] = tested on: NCI-H522 lung
[33] = tested on: NCI/ADR-RES ovarian
[34] = tested on: OVCAR-3 ovarian
[35] = tested on: OVCAR-4 ovarian
[36] = tested on: OVCAR-5 ovarian
[37] = tested on: OVCAR-8 ovarian
[38] = tested on: PC-3 prostate
[39] = tested on: RPMI-8226 leukemia
[40] = tested on: RXF 393 renal
[41] = tested on: SF-268 CNS
[42] = tested on: SF-295 CNS
[43] = tested on: SF-539 CNS
[44] = tested on: SK-MEL-2 melanoma
[45] = tested on: SK-MEL-28 melanoma
[46] = tested on: SK-MEL-5 melanoma
[47] = tested on: SK-OV-3 ovarian
[48] = tested on: SNB-19 CNS
[49] = tested on: SNB-75 CNS
[50] = tested on: SR leukemia
[51] = tested on: SW-620 colon
[52] = tested on: T-47D breast
[53] = tested on: TK-10 renal
[54] = tested on: U251 CNS
[55] = tested on: UACC-257 melanoma
[56] = tested on: UACC-62 melanoma
[57] = tested on: UO-31 renal

CCCc1cc(=O)n2c(C(=O)Nc3ccc(F)cc3)c(C(=O)Nc3ccc(F)cc3)sc2n1
GI50 [1]: 2.64 µM
TGI [1]: 13.3 µM
GI50 [2]: 46.4 µM
TGI [2]: 137 µM
GI50 [3]: 17.5 µM
TGI [3]: 40 µM
GI50 [4]: 17.3 µM
TGI [4]: 57.7 µM
GI50 [5]: > 160 µM
TGI [5]: > 160 µM
GI50 [6]: 75.3 µM
TGI [6]: > 160 µM
GI50 [7]: > 160 µM
TGI [7]: > 160 µM
GI50 [8]: 160 µM
TGI [8]: > 160 µM
GI50 [9]: 124 µM
TGI [9]: > 160 µM
GI50 [10]: > 160 µM
TGI [10]: > 160 µM
GI50 [11]: > 160 µM
TGI [11]: > 160 µM
GI50 [12]: 18.3 µM
TGI [12]: > 160 µM
GI50 [13]: 89.7 µM
TGI [13]: > 160 µM
GI50 [14]: > 160 µM
TGI [14]: > 160 µM
GI50 [15]: 2.29 µM
TGI [15]: 33.2 µM
GI50 [16]: 5.27 µM
TGI [16]: 18.6 µM
GI50 [17]: 2.58 µM
TGI [17]: 11.1 µM
GI50 [18]: 47.1 µM
TGI [18]: > 160 µM
GI50 [19]: 30.3 µM
TGI [19]: 148 µM
GI50 [20]: 10.6 µM
TGI [20]: > 160 µM
GI50 [21]: 111 µM
TGI [21]: > 160 µM
GI50 [22]: 45.5 µM
TGI [22]: > 160 µM
GI50 [23]: 23.5 µM
TGI [23]: 81 µM
GI50 [24]: 36 µM
TGI [24]: 91.3 µM
GI50 [25]: 54.8 µM
TGI [25]: > 160 µM
GI50 [26]: 4.8 µM
TGI [26]: 23.8 µM
GI50 [27]: > 160 µM
TGI [27]: > 160 µM
GI50 [28]: > 160 µM
TGI [28]: > 160 µM
GI50 [29]: 1.71 µM
TGI [29]: 16.3 µM
GI50 [30]: > 160 µM
TGI [30]: > 160 µM
GI50 [31]: 73.4 µM
TGI [31]: > 160 µM
GI50 [32]: 73.3 µM
TGI [32]: > 160 µM
GI50 [33]: 134 µM
TGI [33]: > 160 µM
GI50 [34]: 22.9 µM
TGI [34]: 49.8 µM
GI50 [35]: 26.4 µM
TGI [35]: 54.9 µM
GI50 [36]: > 160 µM
TGI [36]: > 160 µM
GI50 [37]: 4.57 µM
TGI [37]: 28 µM
GI50 [38]: 30.1 µM
TGI [38]: > 160 µM
GI50 [39]: 23.9 µM
TGI [39]: 93.6 µM
GI50 [40]: 4.41 µM
TGI [40]: 13 µM
GI50 [41]: 18.8 µM
TGI [41]: 95.6 µM
GI50 [42]: > 160 µM
TGI [42]: > 160 µM
GI50 [43]: > 160 µM
TGI [43]: > 160 µM
GI50 [44]: 24.1 µM
TGI [44]: 54.4 µM
GI50 [45]: 56.5 µM
TGI [45]: > 160 µM
GI50 [46]: > 160 µM
TGI [46]: > 160 µM
GI50 [47]: 41.7 µM
TGI [47]: > 160 µM
GI50 [48]: 117 µM
TGI [48]: > 160 µM
GI50 [49]: 3.48 µM
TGI [49]: 13.8 µM
GI50 [50]: 31.3 µM
TGI [50]: 88.1 µM
GI50 [51]: 56.5 µM
TGI [51]: > 160 µM
GI50 [52]: 87 µM
TGI [52]: > 160 µM
GI50 [53]: 32.3 µM
TGI [53]: 74.7 µM
GI50 [54]: 16.3 µM
TGI [54]: 47.9 µM
GI50 [55]: 20.8 µM
TGI [55]: 62.8 µM
GI50 [56]: 36.8 µM
TGI [56]: > 160 µM
GI50 [57]: 27.6 µM
TGI [57]: 101 µM
